Data from ChEMBL document CHEMBL6074667, “Discovery and Optimization of First-in-Class Molecular Glue Degraders of the WIZ Transcription Factor for Fetal Hemoglobin Induction to Treat Sickle Cell Disease” (J Med Chem, 2024).
Converted amounts (≈) assume the structure as drawn.

Test system: not listed separately
Assay: Solubility of compound in potassium phosphate buffer at pH 6.8 incubated for 16 to 24 hrs by high-throughput Agilent Rapidfire-MS/MS analysis
Type: physicochemical
Conditions: time 16-24 hrs

SMILES | solubility [µM]
CCN1CCCC[C@@H]1COc1ccc2c(c1)CN(C1CCC(=O)NC1=O)C2=O (some centres undefined) | 450 (≈ 173 µg/mL)

Test system: not listed separately
Assay: Apparent permeability across apical to basolateral side in low efflux MDCK cells at 10 uM incubated for 2 hrs by LC-MS analysis
Type: ADME, cell-based, Canis lupus familiaris
Conditions: dog

SMILES | Papp A→B at 2 h, 10 µM [×10⁻⁶ cm/s]
CCN1CCCC[C@@H]1COc1ccc2c(c1)CN(C1CCC(=O)NC1=O)C2=O (some centres undefined) | 1.1

Test system: not listed separately
Assay: Apparent permeability across apical to basolateral side in low efflux MDCK cells assessed as drug recovery at 10 uM incubated for 2 hrs by LC-MS analysis
Type: ADME, cell-based, Canis lupus familiaris
Conditions: dog, read-out: Drug recovery

SMILES | recovery at 2 h, 10 µM [%]
CCN1CCCC[C@@H]1COc1ccc2c(c1)CN(C1CCC(=O)NC1=O)C2=O (some centres undefined) | 95

Test system: not listed separately
Assay: Intrinsic clearance in mouse liver microsomes
Type: ADME, Microsome
Conditions: read-out: CLH

SMILES | microsomal CLint [µL/min/mg]
CCN1CCCC[C@@H]1COc1ccc2c(c1)CN(C1CCC(=O)NC1=O)C2=O (some centres undefined) | < 25

Test system: not listed separately
Assay: Intrinsic clearance in rat liver microsomes
Type: ADME, Microsome
Conditions: read-out: CLH

SMILES | microsomal CLint [µL/min/mg]
CCN1CCCC[C@@H]1COc1ccc2c(c1)CN(C1CCC(=O)NC1=O)C2=O (some centres undefined) | < 25

Test system: not listed separately
Assay: Intrinsic clearance in human liver microsomes
Type: ADME, Microsome
Conditions: read-out: CLH

SMILES | microsomal CLint [µL/min/mg]
CCN1CCCC[C@@H]1COc1ccc2c(c1)CN(C1CCC(=O)NC1=O)C2=O (some centres undefined) | < 25

Test system: not listed separately
Assay: Protein binding in mouse plasma
Type: ADME, cell-free
Conditions: read-out: PPB (converted)

SMILES | fraction unbound
CCN1CCCC[C@@H]1COc1ccc2c(c1)CN(C1CCC(=O)NC1=O)C2=O (some centres undefined) | > 0.8

Test system: not listed separately
Assay: Protein binding in rat plasma
Type: ADME, cell-free
Conditions: read-out: PPB (converted)

SMILES | fraction unbound
CCN1CCCC[C@@H]1COc1ccc2c(c1)CN(C1CCC(=O)NC1=O)C2=O (some centres undefined) | > 0.8

Test system: not listed separately
Assay: Protein binding in human plasma
Type: ADME, cell-free
Conditions: read-out: PPB (converted)

SMILES | fraction unbound
CCN1CCCC[C@@H]1COc1ccc2c(c1)CN(C1CCC(=O)NC1=O)C2=O (some centres undefined) | > 0.8

Test system: not listed separately
Assay: Half-life in C57BL/6 mouse at 1 mg/kg, iv
Type: ADME, organism-based
Conditions: in vivo

SMILES | half-life [h]
CCN1CCCC[C@@H]1COc1ccc2c(c1)CN(C1CCC(=O)NC1=O)C2=O (some centres undefined) | 1.7

Test system: not listed separately
Assay: Clearance in C57BL/6 mouse at 1 mg/kg, iv
Type: ADME, organism-based
Conditions: in vivo

SMILES | clearance [mL/min/kg]
CCN1CCCC[C@@H]1COc1ccc2c(c1)CN(C1CCC(=O)NC1=O)C2=O (some centres undefined) | 22

Test system: not listed separately
Assay: Volume of distribution at steady state in C57BL/6 mouse at 1 mg/kg, iv
Type: ADME, organism-based
Conditions: in vivo, read-out: Vdss

SMILES | Vd [L/kg]
CCN1CCCC[C@@H]1COc1ccc2c(c1)CN(C1CCC(=O)NC1=O)C2=O (some centres undefined) | 2.2

Test system: not listed separately
Assay: AUClast in C57BL/6 mouse at 3 mg/kg, po
Type: ADME, organism-based
Conditions: in vivo

SMILES | AUC(0-t) [µM·h]
CCN1CCCC[C@@H]1COc1ccc2c(c1)CN(C1CCC(=O)NC1=O)C2=O (some centres undefined) | 0.713

Test system: not listed separately
Assay: Cmax in C57BL/6 mouse at 3 mg/kg, po
Type: ADME, organism-based
Conditions: in vivo

SMILES | Cmax [nM]
CCN1CCCC[C@@H]1COc1ccc2c(c1)CN(C1CCC(=O)NC1=O)C2=O (some centres undefined) | 157

Test system: not listed separately
Assay: Tmax in C57BL/6 mouse at 3 mg/kg, po or 1 mg/kg, iv
Type: ADME, organism-based
Conditions: in vivo

SMILES | Tmax [h]
CCN1CCCC[C@@H]1COc1ccc2c(c1)CN(C1CCC(=O)NC1=O)C2=O (some centres undefined) | 2.3

Test system: not listed separately
Assay: Bioavailability last in C57BL/6 mouse
Type: ADME, organism-based
Conditions: in vivo

SMILES | bioavailability [%]
CCN1CCCC[C@@H]1COc1ccc2c(c1)CN(C1CCC(=O)NC1=O)C2=O (some centres undefined) | 13

Target: T1, Protein cereblon/Protein Wiz (Homo sapiens, UniProt Q96SW2+O95785)
T1 sequence (O95785 whole entry, looked up): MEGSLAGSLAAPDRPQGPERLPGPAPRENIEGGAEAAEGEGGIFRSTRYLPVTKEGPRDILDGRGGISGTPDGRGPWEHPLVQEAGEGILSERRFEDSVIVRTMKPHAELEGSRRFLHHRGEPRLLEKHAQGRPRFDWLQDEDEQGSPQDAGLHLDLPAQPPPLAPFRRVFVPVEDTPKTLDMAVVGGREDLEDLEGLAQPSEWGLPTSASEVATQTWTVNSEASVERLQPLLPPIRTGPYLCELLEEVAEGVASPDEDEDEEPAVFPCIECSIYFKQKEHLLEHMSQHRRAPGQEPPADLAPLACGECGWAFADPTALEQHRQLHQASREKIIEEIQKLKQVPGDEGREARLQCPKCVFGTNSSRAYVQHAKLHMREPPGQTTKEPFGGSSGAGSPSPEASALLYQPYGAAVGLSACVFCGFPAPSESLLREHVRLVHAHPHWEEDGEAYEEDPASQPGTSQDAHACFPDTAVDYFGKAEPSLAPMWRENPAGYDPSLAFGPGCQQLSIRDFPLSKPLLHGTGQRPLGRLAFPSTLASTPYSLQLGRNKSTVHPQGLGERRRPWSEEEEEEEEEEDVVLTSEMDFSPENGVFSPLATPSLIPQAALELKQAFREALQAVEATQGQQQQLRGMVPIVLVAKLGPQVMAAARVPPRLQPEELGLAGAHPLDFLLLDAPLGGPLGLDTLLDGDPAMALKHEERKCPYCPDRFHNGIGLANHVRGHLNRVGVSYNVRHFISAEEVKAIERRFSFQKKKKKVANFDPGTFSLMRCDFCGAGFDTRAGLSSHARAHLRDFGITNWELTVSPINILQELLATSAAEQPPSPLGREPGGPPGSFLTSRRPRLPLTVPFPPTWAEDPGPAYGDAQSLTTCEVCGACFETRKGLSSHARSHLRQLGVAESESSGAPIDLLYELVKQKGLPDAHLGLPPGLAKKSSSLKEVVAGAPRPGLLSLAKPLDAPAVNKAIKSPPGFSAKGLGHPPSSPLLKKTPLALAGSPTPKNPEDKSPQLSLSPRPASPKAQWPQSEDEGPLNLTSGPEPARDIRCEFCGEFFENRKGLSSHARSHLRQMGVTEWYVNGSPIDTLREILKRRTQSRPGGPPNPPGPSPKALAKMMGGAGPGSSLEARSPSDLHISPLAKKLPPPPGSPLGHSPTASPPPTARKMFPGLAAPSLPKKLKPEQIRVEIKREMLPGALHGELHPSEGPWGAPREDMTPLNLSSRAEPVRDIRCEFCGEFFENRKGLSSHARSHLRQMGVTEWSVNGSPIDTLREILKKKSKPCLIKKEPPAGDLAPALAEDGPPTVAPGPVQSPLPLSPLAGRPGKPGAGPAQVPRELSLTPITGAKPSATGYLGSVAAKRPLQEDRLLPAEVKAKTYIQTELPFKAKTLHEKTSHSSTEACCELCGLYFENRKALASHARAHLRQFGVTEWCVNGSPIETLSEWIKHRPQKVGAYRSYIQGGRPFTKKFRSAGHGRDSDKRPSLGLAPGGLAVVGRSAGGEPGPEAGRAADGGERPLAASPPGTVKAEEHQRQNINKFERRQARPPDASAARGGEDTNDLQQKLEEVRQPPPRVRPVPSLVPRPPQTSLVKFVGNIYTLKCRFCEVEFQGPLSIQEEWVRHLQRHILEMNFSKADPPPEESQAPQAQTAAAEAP
T1 sequence (Q96SW2 whole entry, looked up): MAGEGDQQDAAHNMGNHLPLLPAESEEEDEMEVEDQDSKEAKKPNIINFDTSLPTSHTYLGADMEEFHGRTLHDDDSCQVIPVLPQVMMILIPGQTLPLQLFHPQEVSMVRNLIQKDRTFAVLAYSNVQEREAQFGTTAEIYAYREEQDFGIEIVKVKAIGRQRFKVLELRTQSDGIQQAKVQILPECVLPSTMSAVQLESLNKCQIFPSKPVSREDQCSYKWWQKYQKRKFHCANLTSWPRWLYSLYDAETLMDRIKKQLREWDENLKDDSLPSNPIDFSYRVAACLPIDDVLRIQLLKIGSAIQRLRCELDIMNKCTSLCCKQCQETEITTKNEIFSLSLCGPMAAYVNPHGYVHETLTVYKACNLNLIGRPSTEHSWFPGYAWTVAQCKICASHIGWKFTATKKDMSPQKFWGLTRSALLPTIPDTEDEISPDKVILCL
Assay: Molecular glue activity at CRBN/HiBiT-tagged WIZ (unknown origin) expressed in HEK293T cells assessed as induction of WIZ degradation incubated for 18 hrs by Nano-Glo HiBiT-Lytic reagent based luminescence plate reader analysis relative to control
Type: cell-based
Set-up: concentration or dose not given beside the values
Conditions: not given

SMILES | Activity [%]
CCN1CCCC[C@@H]1COc1ccc2c(c1)CN(C1CCC(=O)NC1=O)C2=O (some centres undefined) | 82

Target: T2, Protein cereblon/Sal-like protein 4 (Homo sapiens, UniProt Q96SW2+Q9UJQ4)
Assay: Molecular glue activity at CRBN/HiBiT-tagged SALL4 (unknown origin) expressed in human GripTite 293 MSR cells assessed as induction of SALL4 degradation incubated for 20 hrs by Nano-Glo HiBiT-Lytic reagent based luminescence plate reader analysis
Type: cell-based
Conditions: not given
Target sequence in this assay (Q96SW2 whole entry): as the sequence (Q96SW2 whole entry, looked up) above
Target sequence in this assay (Q9UJQ4 whole entry): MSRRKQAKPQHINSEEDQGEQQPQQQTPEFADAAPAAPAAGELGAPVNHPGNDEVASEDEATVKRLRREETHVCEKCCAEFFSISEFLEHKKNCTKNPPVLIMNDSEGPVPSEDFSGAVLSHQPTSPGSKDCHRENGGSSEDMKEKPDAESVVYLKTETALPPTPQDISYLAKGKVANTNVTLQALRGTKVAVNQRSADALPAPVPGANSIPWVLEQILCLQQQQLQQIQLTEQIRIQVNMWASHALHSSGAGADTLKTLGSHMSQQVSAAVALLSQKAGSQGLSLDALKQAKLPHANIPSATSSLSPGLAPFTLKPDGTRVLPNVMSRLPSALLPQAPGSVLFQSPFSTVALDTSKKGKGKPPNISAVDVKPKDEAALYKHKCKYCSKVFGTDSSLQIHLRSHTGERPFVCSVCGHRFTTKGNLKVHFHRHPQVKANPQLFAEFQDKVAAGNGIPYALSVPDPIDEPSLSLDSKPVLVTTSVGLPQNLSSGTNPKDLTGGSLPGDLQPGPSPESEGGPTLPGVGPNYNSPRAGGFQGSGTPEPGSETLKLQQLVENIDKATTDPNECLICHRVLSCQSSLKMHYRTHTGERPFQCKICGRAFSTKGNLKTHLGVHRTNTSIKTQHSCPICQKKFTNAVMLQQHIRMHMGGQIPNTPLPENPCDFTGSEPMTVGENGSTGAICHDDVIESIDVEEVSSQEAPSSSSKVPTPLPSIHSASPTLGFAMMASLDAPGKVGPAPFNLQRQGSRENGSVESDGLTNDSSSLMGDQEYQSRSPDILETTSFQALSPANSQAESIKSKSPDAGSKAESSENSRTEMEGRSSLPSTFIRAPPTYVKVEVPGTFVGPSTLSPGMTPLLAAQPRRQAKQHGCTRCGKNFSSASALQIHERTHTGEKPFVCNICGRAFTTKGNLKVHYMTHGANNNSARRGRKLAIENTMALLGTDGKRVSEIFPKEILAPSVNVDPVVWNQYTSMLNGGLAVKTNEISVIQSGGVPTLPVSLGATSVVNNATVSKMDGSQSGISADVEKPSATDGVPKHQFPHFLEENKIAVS

SMILES | DC50 [µM]
CCN1CCCC[C@@H]1COc1ccc2c(c1)CN(C1CCC(=O)NC1=O)C2=O (some centres undefined) | 3.8

Target: T2, Protein cereblon/Sal-like protein 4
Assay: Molecular glue activity at CRBN/HiBiT-tagged SALL4 (unknown origin) expressed in human GripTite 293 MSR cells assessed as induction of SALL4 degradation incubated for 20 hrs by Nano-Glo HiBiT-Lytic reagent based luminescence plate reader analysis relative to control
Type: cell-based
Set-up: concentration or dose not given beside the values
Conditions: not given
Target sequence in this assay (Q96SW2 whole entry, looked up): as the sequence (Q96SW2 whole entry, looked up) above
Target sequence in this assay (Q9UJQ4 whole entry, looked up): as the sequence (Q9UJQ4 whole entry) above

SMILES | Activity [%]
CCN1CCCC[C@@H]1COc1ccc2c(c1)CN(C1CCC(=O)NC1=O)C2=O (some centres undefined) | 50

Target: T3, Cereblon/Ikaros (Homo sapiens, UniProt Q96SW2+Q13422)
T3 sequence (Q96SW2 whole entry): as the sequence (Q96SW2 whole entry, looked up) above
T3 sequence (Q13422 whole entry): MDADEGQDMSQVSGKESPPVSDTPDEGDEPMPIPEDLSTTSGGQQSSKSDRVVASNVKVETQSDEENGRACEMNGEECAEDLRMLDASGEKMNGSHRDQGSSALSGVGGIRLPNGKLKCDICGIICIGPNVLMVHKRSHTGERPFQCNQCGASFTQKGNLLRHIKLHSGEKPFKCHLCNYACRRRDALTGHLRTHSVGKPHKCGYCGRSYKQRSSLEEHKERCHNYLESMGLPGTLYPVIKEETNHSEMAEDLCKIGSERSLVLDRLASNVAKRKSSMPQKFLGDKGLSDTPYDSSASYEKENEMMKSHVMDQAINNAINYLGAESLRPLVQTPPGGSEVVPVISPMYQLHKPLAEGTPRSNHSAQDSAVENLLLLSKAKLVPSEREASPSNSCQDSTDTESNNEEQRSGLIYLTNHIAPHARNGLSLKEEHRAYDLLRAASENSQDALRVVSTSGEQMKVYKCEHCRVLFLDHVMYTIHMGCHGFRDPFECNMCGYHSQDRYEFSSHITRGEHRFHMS
Assay: Molecular glue activity at CRBN/HiBiT-tagged IKZF1 (unknown origin) expressed in human GripTite 293 MSR cells assessed as induction of […] incubated for 20 hrs by Nano-Glo HiBiT-Lytic reagent based luminescence plate reader analysis
Type: cell-based
Conditions: not given

SMILES | DC50 [µM]
CCN1CCCC[C@@H]1COc1ccc2c(c1)CN(C1CCC(=O)NC1=O)C2=O (some centres undefined) | > 50

Target: T3, Cereblon/Ikaros
Assay: Molecular glue activity at CRBN/HiBiT-tagged IKZF1 (unknown origin) expressed in human GripTite 293 MSR cells assessed as induction of […] incubated for 20 hrs by Nano-Glo HiBiT-Lytic reagent based luminescence plate reader analysis relative to control
Type: cell-based
Set-up: concentration or dose not given beside the values
Conditions: not given

SMILES | Activity [%]
CCN1CCCC[C@@H]1COc1ccc2c(c1)CN(C1CCC(=O)NC1=O)C2=O (some centres undefined) | < 10

Target: T4, Protein cereblon/Eukaryotic peptide chain release factor GTP-binding subunit ERF3A (Homo sapiens, UniProt Q96SW2+P15170)
Assay: Molecular glue activity at CRBN/HiBiT-tagged GSPT1 (unknown origin) expressed in human GripTite 293 MSR cells assessed as induction of GSPT1 degradation incubated for 20 hrs by Nano-Glo HiBiT-Lytic reagent based luminescence plate reader analysis
Type: cell-based
Conditions: not given
Target sequence in this assay (Q96SW2 whole entry): as the sequence (Q96SW2 whole entry, looked up) above
Target sequence in this assay (P15170 whole entry): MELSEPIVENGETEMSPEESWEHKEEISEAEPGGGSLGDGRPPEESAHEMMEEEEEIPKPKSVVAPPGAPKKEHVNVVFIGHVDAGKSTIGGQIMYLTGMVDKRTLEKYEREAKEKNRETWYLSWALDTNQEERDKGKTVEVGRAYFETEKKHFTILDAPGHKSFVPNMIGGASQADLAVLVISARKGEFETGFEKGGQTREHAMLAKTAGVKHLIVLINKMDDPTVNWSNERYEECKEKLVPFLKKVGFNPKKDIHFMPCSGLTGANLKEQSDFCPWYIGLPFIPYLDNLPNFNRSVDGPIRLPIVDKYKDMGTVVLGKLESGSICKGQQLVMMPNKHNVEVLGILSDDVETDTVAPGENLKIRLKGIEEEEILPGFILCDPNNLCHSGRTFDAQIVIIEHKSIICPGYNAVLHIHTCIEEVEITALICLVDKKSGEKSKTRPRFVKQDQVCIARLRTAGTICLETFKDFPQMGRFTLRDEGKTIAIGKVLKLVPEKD

SMILES | DC50 [µM]
CCN1CCCC[C@@H]1COc1ccc2c(c1)CN(C1CCC(=O)NC1=O)C2=O (some centres undefined) | > 50

Target: T4, Protein cereblon/Eukaryotic peptide chain release factor GTP-binding subunit ERF3A
Assay: Molecular glue activity at CRBN/HiBiT-tagged GSPT1 (unknown origin) expressed in human GripTite 293 MSR cells assessed as induction of GSPT1 degradation incubated for 20 hrs by Nano-Glo HiBiT-Lytic reagent based luminescence plate reader analysis relative to control
Type: cell-based
Set-up: concentration or dose not given beside the values
Conditions: not given
Target sequence in this assay (P15170 whole entry, looked up): as the sequence (P15170 whole entry) above
Target sequence in this assay (Q96SW2 whole entry, looked up): as the sequence (Q96SW2 whole entry, looked up) above

SMILES | Activity [%]
CCN1CCCC[C@@H]1COc1ccc2c(c1)CN(C1CCC(=O)NC1=O)C2=O (some centres undefined) | < 10

Target: T1, Protein cereblon/Protein Wiz
Assay: Molecular glue activity at CRBN/WIZ in human CD34-positive derived primary erythroblast cells assessed as induction of WIZ degradation by measuring maximal efficacy measured after 24 hrs by flow cytometric analysis relative to control
Type: cell-based
Conditions: not given

SMILES | Emax [%]
CCN1CCCC[C@@H]1COc1ccc2c(c1)CN(C1CCC(=O)NC1=O)C2=O (some centres undefined) | 74

Target: T1, Protein cereblon/Protein Wiz
Assay: Molecular glue activity at CRBN/WIZ in human CD34-positive derived primary erythroblast cells assessed as increase in fetal hemoglobin positive cells in CD71+ CD235a+ subpopulation measured after 7 days by flow cytometric analysis relative to control
Type: cell-based
Conditions: time 7.0 day

SMILES | Activity [%]
CCN1CCCC[C@@H]1COc1ccc2c(c1)CN(C1CCC(=O)NC1=O)C2=O (some centres undefined) | 20

Target: T1, Protein cereblon/Protein Wiz
Assay: In vivo molecular glue activity at CRBN/WIZ in immunocompromised naive NBSGW mouse xenografted with human CD34 positive HSPC cells assessed as induction of WIZ degradation in peripheral blood human […] B cells administered orally once daily for 21 days by staining based analysis
Type: functional, organism-based
Conditions: route po, time 21.0 day

SMILES | Activity
CCN1CCCC[C@@H]1COc1ccc2c(c1)CN(C1CCC(=O)NC1=O)C2=O (some centres undefined) | Dose-dependent-effect

Target: T1, Protein cereblon/Protein Wiz
Assay: In vivo molecular glue activity at CRBN/WIZ in immunocompromised naive NBSGW mouse xenografted with human CD34 positive HSPC cells assessed as induction of WIZ degradation in peripheral blood human C19-positive B cells by measuring maximal efficacy at 1 to 10 mg/kg, po administered once daily for 21 days by staining based analysis relative to control
Type: functional, organism-based
Conditions: dose 1-10 mg/kg, time 21.0 day

SMILES | Emax [%]
CCN1CCCC[C@@H]1COc1ccc2c(c1)CN(C1CCC(=O)NC1=O)C2=O (some centres undefined) | 63

Target: T1, Protein cereblon/Protein Wiz
Assay: In vivo molecular glue activity at CRBN/WIZ in immunocompromised naive NBSGW mouse xenografted with human CD34 positive HSPC cells assessed as fold increase in Hbf-positive cells in moCD45 negative hCD45negative CD71positive CD235A positive bone marrow cells at 1 to 10 mg/kg, po administered once daily for 21 days by staining based analysis
Type: functional, organism-based
Conditions: dose 1-10 mg/kg, time 21.0 day

SMILES | fold change (FC)
CCN1CCCC[C@@H]1COc1ccc2c(c1)CN(C1CCC(=O)NC1=O)C2=O (some centres undefined) | 5

Test system: not listed separately
Assay: Toxicity in immunocompromised naive NBSGW mouse xenografted with human CD34 positive HSPC cells assessed as effect on body weight at 1 to 10 mg/kg, po administered once daily for 21 days
Type: organism-based
Conditions: in vivo, 504 h, dose 1-10 mg/kg, time 21 day

SMILES | Activity
CCN1CCCC[C@@H]1COc1ccc2c(c1)CN(C1CCC(=O)NC1=O)C2=O (some centres undefined) | Non-toxic
